Test results taken from US12371464B2, “Polypeptides and uses thereof” (MEDIMMUNE LIMITED, priority 2020, dated 2025).
Numbered stars: 1 amine (or outer) side, 2 acyl side, 3 side chain; on linkers, the order of the positions; unused ones are H or OH. Bridge positions count the residues as written; N and C are the ends. Side chains are listed from the residue outwards. Peptide text beside a SMILES is read from it. * marks the point of attachment. C20 diacid = O=C(O)CCCCCCCCCCCCCCCCCCC(=O)*; γGlu = O=C(O)[C@H](CCC(=O)[*:2])N[*:1]

Key:
[1] = Thioflavin T fibrillation assay; assay type: physicochemical; settings: 1 mg/mL in 25 mM sodium acetate buffer pH 4.0, 37° C., 6 days, orbital shaking; >144 h = no increase
In short: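 Peptides at 1 mg/mL in 25 mM sodium acetate pH 4.0 were mixed with ThT (0.25 mM stock) and held 6 days at 37 °C with intermittent orbital shaking at 500–750 rpm. Fluorescence (ex 444/em 480 nm) was read every 30 min, with buffer baseline correction and 5 replicates. Value: mean time to a detectable fluorescence increase.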

in vivo = settings: male, Sprague-Dawley, rat, 20 nmol/kg
Method: PK studies were performed to determine the half-life (T1/2) of test peptides. T1/2 describes the time taken for the maximum plasma concentration (Cmax) of a test substance to halve its steady-state concentration when in circulation.
The animals were 6-8 weeks old with body weights of 200-300 g on the dosing date. The animals were housed in a 12-hour light/12-hour dark cycle environment and were fasted overnight before dosing. The body weight of the animals were recorded before dosing, 24 h and 48 h post dosing.
Test articles were administered at 20 nmol/kg. Blood samples were collected from each animal via Jugular vein.
The blood samples were transferred into eppendorf low binding tube containing K2EDTA. Above 0.150 mL blood were collected at each time point. Blood samples were centrifuged at 4,000 g for 5 minutes at 4° C. to obtain plasma. The plasma samples were stored frozen at −75±15° C. until analysis.
Concentrations of the test articles in the plasma samples were analyzed using a LC-MS/MS method. […] The pharmacokinetic parameters of test articles were calculated using a non-compartmental approach with Phoenix™ WinNonlin®6.1.
The following pharmacokinetic parameters were calculated, whenever possible from the plasma concentration versus time data: • IV administration: T1/2, C0, AUClast, AUCinf, MRTinf, CI, Vss, Number of Points for Regression. • SC administration: Tmax, Cmax, AUClast, AUCinf, MRTinf, F, Number of Points for Regression.

SMILES | Time taken to detect increase in fluorescence intensity [1] [h] | half-life (in vivo; iv) [h] | half-life (in vivo; sc) [h]
CC[C@H](C)[C@H](NC(=O)[C@@H]1CCCN1C(=O)CNC(=O)[C@H](Cc1ccccc1)NC(=O)[C@H](CC(N)=O)NC(=O)[C@H](CC(N)=O)NC(=O)[C@H](CO)NC(=O)[C@H](CO)NC(=O)[C@H](Cc1c[nH]cn1)NC(=O)[C@@H](NC(=O)[C@H](CC(C)C)NC(=O)[C@H](Cc1ccccc1)NC(=O)[C@H](CC(N)=O)NC(=O)[C@H](C)NC(=O)[C@H](CC(C)C)NC(=O)[C@H](CCCNC(=N)N)NC(=O)[C@H](CCC(N)=O)NC(=O)[C@@H](NC(=O)[C@H](C)NC(=O)[C@@H]1CSSC[C@H](NC(=O)[C@@H](N)CCCCNC(=O)CC[C@H](NC(=O)CC[C@H](NC(=O)CCCCCCCCCCCCCCCCCCC(=O)O)C(=O)O)C(=O)O)C(=O)N[C@@H](CC(N)=O)C(=O)N[C@@H]([C@@H](C)O)C(=O)N[C@@H](C)C(=O)N[C@@H]([C@@H](C)O)C(=O)N1)[C@@H](C)O)C(C)C)C(=O)N[C@@H](CC(C)C)C(=O)N1CCC[C@H]1C(=O)N1CCC[C@H]1C(=O)N[C@H](C(=O)N[C@@H](CC(N)=O)C(=O)N[C@H](C(=O)NCC(=O)N[C@@H](CO)C(=O)N[C@@H](CCCNC(=N)N)C(=O)N[C@H](C(=O)N[C@@H](Cc1ccc(O)cc1)C(N)=O)[C@@H](C)O)C(C)C)[C@@H](C)O [Peptide 114] (H-K([γGlu-γGlu-C20 diacid])CNTATCATQRLANFLVHSSNNFGPILPPTNVGSRTY-NH2; disulfide 2-7; N-terminus assumed) | <5 | 13 | 21.6
CC[C@H](C)[C@H](NC(=O)[C@H](C)NC(=O)[C@@H]1CCCN1C(=O)[C@H](Cc1ccccc1)NC(=O)[C@H](CC(N)=O)NC(=O)[C@@H]1CCCN1C(=O)[C@H](CO)NC(=O)[C@H](CO)NC(=O)[C@H](Cc1c[nH]cn1)NC(=O)[C@@H](NC(=O)[C@H](CC(C)C)NC(=O)[C@H](Cc1ccccc1)NC(=O)[C@H](CC(N)=O)NC(=O)[C@H](C)NC(=O)[C@H](CC(C)C)NC(=O)[C@H](CCCNC(=N)N)NC(=O)[C@H](CCC(N)=O)NC(=O)[C@@H](NC(=O)[C@H](C)NC(=O)[C@@H]1CSSC[C@H](NC(=O)[C@@H](N)CCCCNC(=O)CC[C@H](NC(=O)CC[C@H](NC(=O)CCCCCCCCCCCCCCCCCCC(=O)O)C(=O)O)C(=O)O)C(=O)N[C@@H](CC(N)=O)C(=O)N[C@@H]([C@@H](C)O)C(=O)N[C@@H](C)C(=O)N[C@@H]([C@@H](C)O)C(=O)N1)[C@@H](C)O)C(C)C)C(=O)N[C@@H](CC(C)C)C(=O)N[C@@H](CO)C(=O)N1CCC[C@H]1C(=O)N[C@H](C(=O)N[C@@H](CC(N)=O)C(=O)N[C@H](C(=O)NCC(=O)N[C@@H](CO)C(=O)N[C@@H](CC(N)=O)C(=O)N[C@H](C(=O)N[C@@H](Cc1ccc(O)cc1)C(N)=O)[C@@H](C)O)C(C)C)[C@@H](C)O [Peptide 115] (H-K([γGlu-γGlu-C20 diacid])CNTATCATQRLANFLVHSSPNFPAILSPTNVGSNTY-NH2; disulfide 2-7; N-terminus assumed) | <5 | 14.9 | 20.3
